Assay results: the NIST ThermoML archive (doi:10.1016/j.jct.2004.10.005)

Assay: molar heat capacity at saturation pressure
Settings: Vacuum adiabatic calorimetry

BrC12CC3CC(CC(C3)C1)C2 [1-bromotricyclo[3.3.1.1(3,7)]decane]
Settings	molar heat capacity [J/K/mol]
5.98 K, Crystal 4	1.102
6.34 K, Crystal 4	1.301
6.73 K, Crystal 4	1.56
7.05 K, Crystal 4	1.776
7.4 K, Crystal 4	2.048
7.78 K, Crystal 4	2.391
8.34 K, Crystal 4	2.94
8.96 K, Crystal 4	3.558
9.37 K, Crystal 4	4.013
9.8 K, Crystal 4	4.489
10.27 K, Crystal 4	5.11
10.71 K, Crystal 4	5.643
11.11 K, Crystal 4	6.154
11.51 K, Crystal 4	6.677
11.92 K, Crystal 4	7.254
12.35 K, Crystal 4	7.849
12.82 K, Crystal 4	8.366
13.25 K, Crystal 4	9.058
14.09 K, Crystal 4	10.21
14.56 K, Crystal 4	10.84
15 K, Crystal 4	11.48
15.42 K, Crystal 4	12.01
15.87 K, Crystal 4	12.79
16.34 K, Crystal 4	13.48
16.79 K, Crystal 4	14.11
17.32 K, Crystal 4	14.74
17.91 K, Crystal 4	15.58
18.48 K, Crystal 4	16.3
19.01 K, Crystal 4	17.14
19.61 K, Crystal 4	17.85
20.29 K, Crystal 4	18.72
20.93 K, Crystal 4	19.58
21.63 K, Crystal 4	20.43
22.39 K, Crystal 4	21.39
23.1 K, Crystal 4	22.23
23.9 K, Crystal 4	23.12
24.76 K, Crystal 4	24.04
25.69 K, Crystal 4	25.07
26.66 K, Crystal 4	26.14
27.58 K, Crystal 4	27.16
28.56 K, Crystal 4	28.01
29.52 K, Crystal 4	28.99
29.57 K, Crystal 4	29.29
30.13 K, Crystal 4	29.69
30.42 K, Crystal 4	30.4
30.62 K, Crystal 4	30.95
30.71 K, Crystal 4	31.25
31.02 K, Crystal 4	33.37
31.27 K, Crystal 3	31.25
31.56 K, Crystal 3	31.24
31.81 K, Crystal 3	31.34
32.25 K, Crystal 3	31.61
33.06 K, Crystal 3	32.35
33.28 K, Crystal 3	32.47
34.66 K, Crystal 3	33.75
36.35 K, Crystal 3	35.07
38.12 K, Crystal 3	36.42
39.98 K, Crystal 3	37.78
41.9 K, Crystal 3	39.06
43.96 K, Crystal 3	40.39
46.12 K, Crystal 3	41.85
48.32 K, Crystal 3	43.17
50.74 K, Crystal 3	44.52
53.31 K, Crystal 3	45.98
55.82 K, Crystal 3	47.36
58.21 K, Crystal 3	48.67
60.62 K, Crystal 3	50.13
63.03 K, Crystal 3	51.45
65.43 K, Crystal 3	52.6
67.86 K, Crystal 3	54.08
70.3 K, Crystal 3	55.24
72.8 K, Crystal 3	56.68
75.3 K, Crystal 3	57.96
77.74 K, Crystal 3	59.21
80.19 K, Crystal 3	60.74
82.69 K, Crystal 3	61.79
85.17 K, Crystal 3	63.27
87.66 K, Crystal 3	64.58
90.17 K, Crystal 3	65.86
92.68 K, Crystal 3	67.39
95.2 K, Crystal 3	68.53
97.74 K, Crystal 3	70.12
100.3 K, Crystal 3	71.52
100.96 K, Crystal 3	71.76
102.83 K, Crystal 3	72.73
104.15 K, Crystal 3	73.63
105.3 K, Crystal 3	74.09
107.32 K, Crystal 3	75.22
110.3 K, Crystal 3	76.73
113.21 K, Crystal 3	78.44
116.14 K, Crystal 3	79.82
119.1 K, Crystal 3	81.75
122.01 K, Crystal 3	83.28
124.86 K, Crystal 3	84.61
127.91 K, Crystal 3	86.56
131.28 K, Crystal 3	88.26
134.63 K, Crystal 3	90.38
137.93 K, Crystal 3	91.96
141.17 K, Crystal 3	93.89
144.35 K, Crystal 3	95.86
147.49 K, Crystal 3	97.33
150.64 K, Crystal 3	99.37
153.81 K, Crystal 3	101.4
156.99 K, Crystal 3	103
160.16 K, Crystal 3	104.9
160.53 K, Crystal 3	105.5
163.7 K, Crystal 3	107.4
166.86 K, Crystal 3	109.4
169.99 K, Crystal 3	111.2
173.09 K, Crystal 3	113.3
176.19 K, Crystal 3	115.1
179.34 K, Crystal 3	117.2
182.56 K, Crystal 3	119.4
185.78 K, Crystal 3	121.5
189.07 K, Crystal 3	123.6
192.43 K, Crystal 3	126.2
195.86 K, Crystal 3	128.7
199.38 K, Crystal 3	130.9
202.85 K, Crystal 3	133.7
206.29 K, Crystal 3	135.9
209.76 K, Crystal 3	138.8
213.19 K, Crystal 3	141.4
216.58 K, Crystal 3	143.7
220.01 K, Crystal 3	146.7
223.4 K, Crystal 3	149.2
226.82 K, Crystal 3	152.2
230.32 K, Crystal 3	155.2
230.97 K, Crystal 3	155.8
234.32 K, Crystal 3	158.8
237.7 K, Crystal 3	162.3
241 K, Crystal 3	166.2
241.09 K, Crystal 3	165.9
244.38 K, Crystal 3	169.3
244.57 K, Crystal 3	169.7
247.65 K, Crystal 3	173
248.16 K, Crystal 3	173.6
251.11 K, Crystal 3	177.1
251.71 K, Crystal 3	177.8
254.61 K, Crystal 3	181.5
255.15 K, Crystal 3	182.1
257.99 K, Crystal 3	186.2
258.5 K, Crystal 3	187.1
261.32 K, Crystal 3	192.1
261.93 K, Crystal 3	193.3
264.6 K, Crystal 3	198.2
265.32 K, Crystal 3	200.1
267.83 K, Crystal 3	205.5
268.59 K, Crystal 3	207.2
271.04 K, Crystal 3	214.7
271.85 K, Crystal 3	217.2
274.2 K, Crystal 3	227.6
275.09 K, Crystal 3	231.6
277.23 K, Crystal 3	248.5
278.12 K, Crystal 3	258.4
279.76 K, Crystal 3	284.9
280.08 K, Crystal 3	308.9
280.17 K, Crystal 3	297.9
280.56 K, Crystal 3	309.4
280.94 K, Crystal 3	336.3
281.3 K, Crystal 3	377.6
281.63 K, Crystal 3	422.2
281.93 K, Crystal 3	523.4
282.18 K, Crystal 3	643.2
282.41 K, Crystal 2	586.3
282.52 K, Crystal 2	470.3
282.69 K, Crystal 2	384.2
283.04 K, Crystal 2	278.4
283.48 K, Crystal 2	248.5
283.93 K, Crystal 2	226.3
284.68 K, Crystal 2	219.3
285.09 K, Crystal 2	222.5
286.24 K, Crystal 2	214.2
288.26 K, Crystal 2	209.5
290.59 K, Crystal 2	211.1
291.43 K, Crystal 2	211.7
293.15 K, Crystal 2	212.4
294.62 K, Crystal 2	213.4
295.8 K, Crystal 2	213.7
298.44 K, Crystal 2	215.6
298.96 K, Crystal 2	215.9
301.06 K, Crystal 2	217.3
303.6 K, Crystal 2	220.7
306.07 K, Crystal 2	236.7
308.13 K, Crystal 2	437.7
312.39 K, Crystal 1	249
314.9 K, Crystal 1	250.6
314.98 K, Crystal 1	251.1
317.39 K, Crystal 1	253.5
317.63 K, Crystal 1	254
